The target of experiment [1] is T1, BRN2 (Homo sapiens, UniProt P20265).
T1 sequence (P20265 1-443): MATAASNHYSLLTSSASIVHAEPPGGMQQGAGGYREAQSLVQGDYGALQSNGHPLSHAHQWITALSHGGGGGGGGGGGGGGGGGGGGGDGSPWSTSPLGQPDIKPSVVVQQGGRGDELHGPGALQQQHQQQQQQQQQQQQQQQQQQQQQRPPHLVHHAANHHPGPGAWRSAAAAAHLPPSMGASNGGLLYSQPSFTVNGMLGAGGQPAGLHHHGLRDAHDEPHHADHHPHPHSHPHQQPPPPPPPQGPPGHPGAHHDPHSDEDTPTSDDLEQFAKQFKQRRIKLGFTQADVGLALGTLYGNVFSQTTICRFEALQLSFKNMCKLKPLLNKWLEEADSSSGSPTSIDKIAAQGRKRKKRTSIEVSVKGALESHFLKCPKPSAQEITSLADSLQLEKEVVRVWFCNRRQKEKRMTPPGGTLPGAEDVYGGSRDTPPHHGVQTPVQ
Briefly: BLI binding. On the technique in general: Biolayer interferometry detects binding as a change in optical thickness at a sensor tip.

Experiment [2] relates to 42D^ENZR cells vs 16D^CRPC cells. The experiment is described as follows: Cell proliferation specificity, 42D^ENZR cells vs 16D^CRPC cells. The experiment is classed as cell-based. To be noted: 42D cells express BRN2, 16D cells do not; some also LNCaP; result in words. The protocol: Plate 42DENZR (˜7000 cells per well) and 16D^CRPC (˜5000 cells per well) cells in 96 well plate with a volume of 100 μL per well. • 2. Next day 1 mL aliquots of media are combined with 3× the desired concentration of compounds. The aliquots are vortexed and 50 μL of each 3× concentration is added to the 100 μL of media in each well to give the ix desired concentration.
The following are the desired concentrations:
0, 10 nM, 100 nM, 500 nM, 1 μM, 2.5 μM, 5 μM, 10 μM, 15 μM, […], 30 μM. • 3. Approximately 72 hours later, 17 μL of 10% Glutaraldehyde is added to each well and plates are placed on a shaker for 20-30 minutes. • 4. Media is washed off the fixed cells by slow submersion in a container of water. Then the water is removed by tapping the plate upside down. • 5. 75 μL of Crystal Violet™ solution is added into the 96 well plates and placed on a shaker for ˜30 minutes. • 6. Media is washed off the fixed cells by repeated slow submersion in a container of water and the plates are allowed to dry over-night. • 7. Next day, 75 μL of Sorensen Solution is accurately pipetted into each well. The plates placed on a shaker for ˜30 minutes. • 8. Absorbance is measured in the plate at 590 nm.
Compounds that Show Specificity Towards 42D^ENZR Cells Vs 16D^CRPC Cells Progress to Step 4.
Where data is not available “na” is inserted.

Experiment [3] has as its target T1, BRN2. The experiment is described as follows: Drug Affinity Responsive Target Stability (DARTS) assay. The experiment is classed as binding. Particulars: 42D^ENZR cell lysate, yes/no direct interaction with BRN2. Further details: endogenous in cells; host or cells: 42D^ENZR cells. The protocol:
This in cell assay provides a yes/no answer to direct interaction between BRN2 inhibitor and protein. • i) Prepare and place the following on ice: • Pronase • TNC 10× • −500 mM Tris-HCl (pH 8.0) • −500 mM NaCl, 100 mM CaCl2 • DMSO • Drug • 10 mL NP40+Protease inhibitor+Phosphatase inhibitor solution (can store in 4° C. and use for up to 4 weeks): • −2 mL NP40 5× • −8 mL ddH2O • −1 PhosphoSTOP™ pill • −200 uL protease inhibitor 50×
2) Remove the growth medium from the cell plate (42D^ENZR) and add 10 mL of cold PBS/vanadate.
3) Scrape the cells. Remove the PBS-cell solution and add in a falcon tube.
4) Name a new 1.5 ml Eppendorf tube and put on ice to pre-chill.
5) Centrifuge the cells at 1500 for 5 minutes at 4° C. Remove supernatant and re-suspend the cells in 600 uL NP40 lysis buffer by pipetting up and down. If the cell pellet is small use less volume, for example 300 μl)
6) Transfer the lysing cells into the pre-chilled Eppendorf tube. Incubate on ice for 20 minutes. If not continuing the DARTS on the same day, you can put the lysate in −30 and work on it later.
7) Centrifuge the tube at maximum speed for 25-30 minutes at 4° C.
8) Discard the pellet (either transfer the supernatant in a new tube or just take out the pellet). […]
20) The samples are ready for Western blot gel running. […]

For the molecule `FC(F)(F)c1ccc2cc(-c3csc(-c4ccco4)n3)oc2c1` [VPC-18-51, 2-(Furan-2-yl)-4-(6-(trifluoromethyl)benzofuran-2-yl)thiazole], the BLI binding result in experiment [1] is “binding”. In addition, the specificity result in experiment [2] is listed as “specific 42D not 16D”. The DARTS binding entry in experiment [3] was “binding”.

Take `Clc1cc2cc(-c3csc(-c4ccc[nH]4)n3)oc2cc1Cl` [VPC-18-142]: the BLI binding result in experiment [1] is reported as “binding”. The specificity result in experiment [2] was “not 16D”. The DARTS binding result in experiment [3] was “binding”.

These data come from patent publication US20220106304A1, “Transcription Factor BRN2 Inhibitory Compounds as Therapeutics and Methods for Their Use” (The University of British Columbia, priority 2018, published 2022).
